Assay results: patent US20100047306A1, “PHARMACEUTICAL COMPOSITIONS COMPRISING BISPHOSPONATES” (NOVARTIS AG, priority 2006, published 2010)

System: Wistar rats
Assay: Tolerability study of calcium zoledronate microparticles in rats after s.c. administration (skin fold thickness)
Type: in vivo, rat
Settings: s.c. injection of suspension, 60 microgram, female Wistar rats
Experimental: The microparticles of Examples 2 and 3 are suspended in a vehicle containing sodium carboxy methylcellulose, D-mannitol, Pluronics F68 and water for injection. 200 microliters of these suspensions were injected subcutaneously to the shaved skin at the left dorsal side of 8 weeks old female virgin Wistar rats (body weight approximately 220 g). In this way 1 mg dose (per animal) of zoledronic acid of the 15% calcium zoledronate microparticles (Example 3) and 2 mg dose (per animal) of zoledronic acid of the 10% calcium zoledronate microparticles (Example 2) were applied to a group of 6 animals per formulation. The thickness of the skin will be measured by a micro-caliper at the side of injection and the contra-lateral non-injected side. As reference a suspension of non-encapsulated drug substance is injected in a dose of 60 microgram. In addition, placebo microparticles made out of PLGA 75:25 (IV 0.68 dL/g) are also injected as control.

**Q.** `O=P([O-])(O)C(O)(Cn1ccnc1)P(=O)([O-])O.[Ca+2]` [non-encapsulated drug substance, calcium zoledronate] was tested. Which “swelling of the skin / local skin irritation” value did it give?
**A.** strong swelling of the skin
